According to publication PMC6273488, “Synthesis and Biological Evaluation of Benzochromenopyrimidinones as Cholinesterase Inhibitors and Potent Antioxidant, Non-Hepatotoxic Agents for Alzheimer’s Disease” (Molecules, 2016):
Where two headings read alike, the source gives them in different places.

What was measured:
[1] = biological target: T1, horse serum BuChE (eqBuChE) (Equus caballus, UniProt P81908); conditions: cited from earlier work
T1 construct: BuChE from horse serum (lyophilized powder, Sigma-Aldrich); purchased Sigma-Aldrich; host or cells: horse serum

[2] = biological target: T2, Electrophorus electricus AChE (EeAChE) (Electrophorus electricus, UniProt O42275); conditions: cited from earlier work
T2 construct: purified AChE from Electrophorus electricus (Type V-S, Sigma-Aldrich); purchased Sigma-Aldrich Type V-S

[3] = in vitro; conditions: PAMPA, pH 7.4
Description: Penetration across the BBB is an essential property for compounds targeting the CNS. […] The filter membrane of the donor plate was coated with PBL (Polar Brain Lipid, Avanti, AL, USA) in dodecane (4 µL of 20 mg/mL PBL in dodecane) and the acceptor well was filled with 300 µL of PBS pH 7.4 buffer ([…]). Tested compounds were dissolved first in DMSO and that diluted with PBS pH 7.4 to reach the final concentration 100 µM in the donor well. […] 300 µL of the donor solution was added to the donor wells ([…]) and the donor filter plate was carefully put on the acceptor plate so that coated membrane was “in touch” with both donor solution and acceptor buffer. Test compound diffused from the donor well through the lipid membrane (Area = 0.28 cm^2) to the acceptor well. The concentration of the drug in both donor and the acceptor wells was assessed after 3, 4, 5 and 6 h of incubation in quadruplicate using the UV plate reader Synergy HT (Biotek, Winooski, VT, USA) at the maximum absorption wavelength of each compound.

[4] = in vitro; assay type: cell-based; conditions: 24 h, MTT, read-out: In vitro toxicity (% cell viability)
Description: (§1) A prerequisite for any effective lead drug is to keep its cytotoxicity at the lowest possible level. In this regard, we submitted the four most promising compounds (3Ab, 3Bb, 3Cb and 3Ba) to an in vitro toxicologic evaluation (MTT assay) using human hepatocellular carcinoma cell line (HepG2) which represents a good probe to evaluate hepatotoxic effects. […].
(§2) HepG2 cells were purchased from American Type Culture Collection. The cells were cultured in Eagle’s Minimum Essential Medium (Ozyme, France) supplemented with 10% fetal bovine serum, 1X non-essential amino acids, 100 units/mL penicillin and […] streptomycin (Dutscher, Brumath, France). Cultures were kept under a CO2/air (5%/95%) humidified atmosphere at 37 °C. Prior to the experiment, cells were seeded in 96-well culture plates at a density of 0.1 × 10^6 cells per well. After 24 h of incubation, the culture medium was refreshed and 100 µL of the test compounds or DMSO (0.1%) were added. […] For the MTT assay, after 24 h of treatment, cells were incubated with 50 µL MTT (0.5 mg/mL, Sigma Aldrich, city, France) at 37 °C for 2 h. Plates were centrifuged, MTT was removed and 100 µL DMSO was distributed per well. The absorbance at 570 nm was measured using microplate reader (brand). Cell viability was expressed as percentage of cell viability compared to controls (DMSO, 0.1%).

[5] = tested on: HepG2 cells; experiment: in vitro; assay type: cell-based; conditions: HepG2, MTT, concentrations up to 1000 μM
Description: as §1, §2

[6] = ORAC-FL; cited from earlier work
[7] = related alkaloid and synthetic compounds

T1 sequence (P81908 whole entry): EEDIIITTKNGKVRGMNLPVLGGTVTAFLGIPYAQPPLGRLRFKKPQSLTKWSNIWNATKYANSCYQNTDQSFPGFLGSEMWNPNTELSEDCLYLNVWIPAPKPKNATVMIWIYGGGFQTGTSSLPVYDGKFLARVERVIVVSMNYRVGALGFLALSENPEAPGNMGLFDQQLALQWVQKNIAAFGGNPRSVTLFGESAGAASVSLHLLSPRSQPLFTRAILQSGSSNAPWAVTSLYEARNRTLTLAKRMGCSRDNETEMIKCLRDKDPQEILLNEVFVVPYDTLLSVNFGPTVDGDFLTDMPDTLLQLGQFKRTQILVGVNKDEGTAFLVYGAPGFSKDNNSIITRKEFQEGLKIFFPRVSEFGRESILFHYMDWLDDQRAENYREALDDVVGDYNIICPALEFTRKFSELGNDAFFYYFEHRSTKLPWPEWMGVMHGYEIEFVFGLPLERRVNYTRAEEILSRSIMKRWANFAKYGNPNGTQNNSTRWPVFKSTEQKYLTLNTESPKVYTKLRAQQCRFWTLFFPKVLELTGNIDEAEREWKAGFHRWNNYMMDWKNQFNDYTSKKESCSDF
T2 sequence (O42275 24-633): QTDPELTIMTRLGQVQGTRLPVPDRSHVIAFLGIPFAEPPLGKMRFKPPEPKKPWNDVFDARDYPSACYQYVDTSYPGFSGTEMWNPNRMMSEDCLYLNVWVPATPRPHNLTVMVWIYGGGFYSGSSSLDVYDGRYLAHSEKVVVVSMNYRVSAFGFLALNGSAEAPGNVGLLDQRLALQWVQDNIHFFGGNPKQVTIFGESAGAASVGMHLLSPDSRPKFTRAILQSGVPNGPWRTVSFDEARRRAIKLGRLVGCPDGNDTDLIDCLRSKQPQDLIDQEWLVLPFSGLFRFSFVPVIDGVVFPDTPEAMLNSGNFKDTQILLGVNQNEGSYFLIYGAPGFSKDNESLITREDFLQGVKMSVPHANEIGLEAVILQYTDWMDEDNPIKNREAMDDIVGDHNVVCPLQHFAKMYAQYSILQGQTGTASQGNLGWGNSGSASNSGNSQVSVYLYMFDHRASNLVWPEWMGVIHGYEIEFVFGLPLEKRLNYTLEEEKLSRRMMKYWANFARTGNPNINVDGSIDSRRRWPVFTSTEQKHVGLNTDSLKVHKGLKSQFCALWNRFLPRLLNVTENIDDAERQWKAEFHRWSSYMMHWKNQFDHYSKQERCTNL

In the case of O=c1c2ccccc2nc2n1CCCC2 [Ib], the IC50 ([1]; unit inferred) is given as over 500 µM and the IC50 [2, 7] is given as 38.6 µM.
Nc1c2c(nc3ccccc13)CCCC2 [Tacrine, tacrine, reference compound] showed a Papp [3] of 5.3 ± 0.19 ×10⁻⁶ cm/s, a viability at 24 h, 1 µM ([4]; HepG2, 1 µM) of 105 ± 4.6% and a viability at 24 h, 3 µM ([4]; HepG2, 3 µM) of 104 ± 8.7%. It also gave a viability at 24 h, 10 µM ([4]; HepG2, 10 µM) of 97 ± 6.5%, a viability at 24 h, 30 µM ([4]; HepG2, 30 µM) of 93 ± 2.7% and a viability at 24 h, 100 µM ([4]; HepG2, 100 µM) of 95.2 ± 6%. The viability at 24 h, 300 µM ([4]; HepG2, 300 µM) was 47.6 ± 5.6%, the viability at 24 h, 1 mM ([4]; HepG2, 1 mM) was 13.9 ± 0.8% and the “hepatotoxicity on HepG2 cells (in words)” value [5] was “safe up to 100 µM but significantly decreased cell viability above 300 μM”. The ORAC [6] was 0.2 ± 0.1 [22] Trolox equivalents.
For C[n+]1c2n(c(=O)c3ccccc31)CCc1c-2[nH]c2ccccc12 [II, dehydroevodiamine chloride], the IC50 [1] is listed as 8.4 µM and the IC50 [2] is listed as 6.3 µM.
In the case of O=c1c2ccccc2nc2n1CCCCC2 [Ic], the IC50 ([1]; unit inferred) is listed as over 500 µM and the IC50 [2, 7] is listed as 279 µM.
